Test results taken from patent US12590106B2, “Spiromacrocyclic orexin 2 receptor agonists” (H. Lundbeck A/S, priority 2023, dated 2026).

Experiments:
human Ox2R = molecular target: T1, human Ox2R (Homo sapiens, UniProt O43614); experiment: Measurement of OX2R agonist activity (cell-based calcium release assay); conditions: hOx2R-CHO Flp-In cells, n≥2 tests; for EC50: intracellular calcium, read-out: EC50; for Emax: read-out: Emax (%)
T1 construct: The gene encoding hOx2R was subcloned into the expression plasmid pcDNA5/FRT/TO; expressed in transfected cells; host or cells: CHO Flp-In cells (pcDNA5/FRT/TO with pOG44 Flp recombinase vector, hygromycin B selection)
T1 sequence (O43614 1-444): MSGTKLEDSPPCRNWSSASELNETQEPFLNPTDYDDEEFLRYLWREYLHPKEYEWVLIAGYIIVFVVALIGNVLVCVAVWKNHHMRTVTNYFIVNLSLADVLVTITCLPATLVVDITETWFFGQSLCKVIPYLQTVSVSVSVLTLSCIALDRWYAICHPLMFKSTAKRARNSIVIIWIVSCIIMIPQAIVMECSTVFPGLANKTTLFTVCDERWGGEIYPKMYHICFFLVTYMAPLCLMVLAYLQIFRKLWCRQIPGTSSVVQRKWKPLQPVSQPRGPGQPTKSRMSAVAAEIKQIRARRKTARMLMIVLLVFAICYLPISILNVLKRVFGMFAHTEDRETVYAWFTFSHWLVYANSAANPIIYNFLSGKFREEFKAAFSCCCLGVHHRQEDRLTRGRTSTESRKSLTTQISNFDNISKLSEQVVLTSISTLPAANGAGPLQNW
Procedure, shortened: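 CHO Flp-In cells stably expressing human Ox2R, dye-loaded 1 h at 37 °C in HBSS/20 mM HEPES pH 7.4 with 2.5 mM probenecid and 10 mM CaCl2, then stimulated with compound.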

P-gp (MDR1) = molecular target: T2, P-gp (MDR1) (Homo sapiens, UniProt P08183); experiment: MDR1-MDCKII assay (bidirectional transport); type: in vitro ADME; conditions: MDCK-MDR1, pH 7.4, test compound 0.5 μM, MDR1-MDCKII monolayer; for efflux ratio at 0.5 μM: read-out: ER (efflux ratio); for Papp A→B at 0.5 μM: apical to basolateral
T2 construct: host or cells: MDCKII (canine kidney) cells transfected with human MDR1
T2 sequence (P08183 whole entry): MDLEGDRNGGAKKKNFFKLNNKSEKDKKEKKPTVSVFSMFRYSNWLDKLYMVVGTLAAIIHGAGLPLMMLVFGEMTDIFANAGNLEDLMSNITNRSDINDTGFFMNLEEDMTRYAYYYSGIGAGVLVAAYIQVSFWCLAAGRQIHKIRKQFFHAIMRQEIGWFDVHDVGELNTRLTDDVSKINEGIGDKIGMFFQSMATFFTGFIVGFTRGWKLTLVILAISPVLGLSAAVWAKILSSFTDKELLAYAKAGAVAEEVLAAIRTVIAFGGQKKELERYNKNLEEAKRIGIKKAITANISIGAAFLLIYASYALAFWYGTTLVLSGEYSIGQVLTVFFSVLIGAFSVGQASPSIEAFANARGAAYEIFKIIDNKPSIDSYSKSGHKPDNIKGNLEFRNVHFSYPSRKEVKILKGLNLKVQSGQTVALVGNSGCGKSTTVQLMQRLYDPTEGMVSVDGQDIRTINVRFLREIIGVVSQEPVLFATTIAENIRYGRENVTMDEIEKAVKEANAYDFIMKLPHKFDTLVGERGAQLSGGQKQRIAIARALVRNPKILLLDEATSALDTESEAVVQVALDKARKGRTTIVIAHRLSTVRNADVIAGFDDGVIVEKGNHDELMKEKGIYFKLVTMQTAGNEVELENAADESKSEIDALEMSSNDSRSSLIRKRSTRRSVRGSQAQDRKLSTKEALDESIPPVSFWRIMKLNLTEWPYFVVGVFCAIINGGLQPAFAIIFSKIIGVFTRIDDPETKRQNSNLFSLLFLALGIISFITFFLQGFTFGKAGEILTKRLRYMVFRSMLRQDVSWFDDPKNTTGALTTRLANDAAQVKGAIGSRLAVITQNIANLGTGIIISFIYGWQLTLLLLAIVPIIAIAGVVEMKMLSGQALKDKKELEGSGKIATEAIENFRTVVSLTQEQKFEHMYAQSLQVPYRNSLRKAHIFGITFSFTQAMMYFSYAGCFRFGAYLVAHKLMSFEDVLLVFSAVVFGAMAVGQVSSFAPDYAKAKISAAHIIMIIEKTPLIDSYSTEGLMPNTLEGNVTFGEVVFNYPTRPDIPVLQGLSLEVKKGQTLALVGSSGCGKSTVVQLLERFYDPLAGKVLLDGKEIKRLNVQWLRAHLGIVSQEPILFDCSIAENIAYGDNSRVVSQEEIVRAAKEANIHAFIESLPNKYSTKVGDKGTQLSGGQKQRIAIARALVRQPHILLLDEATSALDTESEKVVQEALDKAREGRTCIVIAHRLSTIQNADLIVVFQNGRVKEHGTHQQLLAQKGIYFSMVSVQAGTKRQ
Description: Bidirectional transport in MDCKII cells transfected with human MDR1 were assessed according to previously published methodology (Langthaler, K. et al. (2024). Fluids Barriers CNS, 21 (11): 1-15). In brief, cells obtained from the Netherlands Cancer Institute were maintained at 37° C. in α-MEM containing 10% FBS, 100 μg/mL penicillin-G, 100 μg/mL streptomycin, 1% non-essential amino acid under culture conditions of 5% CO2 and 95% relative humidity. Transport of test compound (0.5 μM, 0.4% DMSO final concentrations) across the cell monolayer was determined in triplicate on a single test occasion along with controls for low and high permeability (fenoterol and metoprolol, 2 μM) and P-gp efflux (digoxin, 10 μM). Each compound was loaded onto either the apical side (75 μL) or basolateral side (275 μL) with transport buffer (1% BSA in HBSS with 10 mM HEPES (pH 7.4)) on the opposing side of the cells (e.g. 50 μL or 250 μL on the apical or basolateral side). A sample (25 μL) from the donor compartment was taken 30 s after test compound is loaded onto the plate, resulting in a final incubation volume of 50 μL and 250 μL on apical and basolateral sides respectively. At the end of the incubation period, samples (75 μL) were taken from both sides. The donor samples (25 μL) were firstly diluted with transport buffer (50 μL) and then all samples were quenched in acetonitrile (125 μL) containing internal analytical standards. After centrifugation (20 min, 3220 g, 4° C.) the supernatants were analysed by LC-MS/MS. The apparent permeability coefficient (Papp) and efflux ratio (ER) were calculated using the equations below; where dCr/dt is the compound concentration in the receiver chamber as a function of time (μM/s); Vr is the solution volume in the receiver chamber; A is the surface area of the cell monolayer; C0 is the initial concentration in the donor compartment; and Papp A-B and Papp B-A refer to the apparent permeabilities in the respective directions. Compound permeability is classified as low, moderate, or high according to Papp value binning classifications: <1, 1 to 6 or >6×10^−6 cm/s, respectively. The ER is employed to classify compounds as unlikely, possible, or likely P-gp substrates when ER was: <1.5, 1.5 to <2 or >2, respectively.

[1] = normalized to assay buffer (0%) and 10 μM Danavorexton (100%)

Structure (SMILES) | EC50 (human Ox2R) [nM] | Emax (human Ox2R; [1]) [%] | efflux ratio at 0.5 μM (P-gp (MDR1)) | Papp A→B at 0.5 μM (P-gp (MDR1)) [×10⁻⁶ cm/s] | Emax (%) (human Ox2R; [1])
CS(=O)(=O)N[C@H]1CC[C@@]2(Cc3ccc(F)c(c3)-c3cccc(F)c3OCc3coc2n3)C1 [Example 8, N-[(1′S,14R)-6,19-difluorospiro[8,12-dioxa-21-azatetracyclo[14.3.1.110,13.02,7]henicosa-1(19),2,4,6,10,13(21),16(20),17-octaene-14,3′-cyclopentane]-1′-yl]methanesulfonamide] | 0.064 | 99 | 1.3 | 11.5 | 
CS(=O)(=O)N[C@H]1CC[C@@]2(Cc3cc(c(F)cc3F)-c3cccc(F)c3OCc3csc2n3)C1 [Example 36, N-[(1′S,14R)-6,17,19-trifluorospiro[8-oxa-12-thia-21-azatetracyclo[14.3.1.110,13.02,7]henicosa-1(19),2,4,6,10,13(21),16(20),17-octaene-14,3′-cyclopentane]-1′-yl]methanesulfonamide] | 0.058 | 100 | 1.1 | 8.23 | 
CS(=O)(=O)N[C@@H]1C[C@]2(Cc3ccc(F)c(c3)-c3cccc(F)c3OCc3coc2n3)[C@H]2C[C@@H]12 [Example 117, N-[(1′R,2′R,5′S,14R)-6,19-difluorospiro[8,12-dioxa-21-azatetracyclo[14.3.1.110,13.02,7]henicosa-1(20),2,4,6,10,13(21),16,18-octaene-14,4′-bicyclo[3.1.0]hexane]-2′-yl]methanesulfonamide] | 0.048 | 100 | 1.9 | 9.31 | 
CS(=O)(=O)N[C@H]1CC[C@@]2(CO[C@H]3CC[C@H](CC3)c3cccc(n3)OCc3coc2n3)C1 [Example 42, N-[(1s,1′S,13S,16s)-spiro[7,11,15-trioxa-21,22-diazatetracyclo[14.2.2.12,6.19,12]docosa-2,4,6(22),9,12(21)-pentaene-13,3′-cyclopentane]-1′-yl]methanesulfonamide] | 0.062 | 98 | 1 | 13 | 
O=S(=O)(N[C@H]1CC[C@@]2(Cc3cc(c(F)cc3F)-c3cccc(F)c3OCc3coc2n3)C1)C1CC1 [Example 104, N-[(1′S,14R)-6,17,19-trifluorospiro[8,12-dioxa-21-azatetracyclo[14.3.1.110,13.02,7]henicosa-1(19),2,4,6,10,13(21),16(20),17-octaene-14,3′-cyclopentane]-1′-yl]cyclopropanesulfonamide] | 0.08 | 100 | 1.6 | 9.52 | 
CS(=O)(=O)N[C@H]1CC[C@@]2(Cc3ccc(Cl)c(c3)-c3cccc(F)c3OCc3coc2n3)C1 [Example 16, N-[(1′S,14R)-19-chloro-6-fluoro-spiro[8,12-dioxa-21-azatetracyclo[14.3.1.110,13.02,7]henicosa-1(19),2,4,6,10,13(21),16(20),17-octaene-14,3′-cyclopentane]-1′-yl]methanesulfonamide] | 0.051 | 99 | 1 | 9.31 | 
O=S(=O)(N[C@H]1CC[C@@]2(Cc3ccc(F)c(c3)-c3cccc(F)c3OCc3coc2n3)C1)C1(F)CC1 [Example 116, N-[(1′S,14R)-6,19-difluorospiro[8,12-dioxa-21-azatetracyclo[14.3.1.110,13.02,7]henicosa-1(20),2,4,6,10,13(21),16,18-octaene-14,3′-cyclopentane]-1′-yl]-1-fluoro-cyclopropanesulfonamide] | 0.068 | 98 | 1.5 | 3.87 | 
CS(=O)(=O)N[C@H]1CC[C@@]2(Cc3ccc(F)c(c3)-c3cccc(F)c3OCc3nccc2n3)C1 [Example 95, N-[(1′S,15R)-6,20-difluorospiro[8-oxa-11,22-diazatetracyclo[15.3.1.110,14.02,7]docosa-1(20),2,4,6,10,12,14(22),17(21),18-nonaene-15,3′-cyclopentane]-1′-yl]methanesulfonamide] | 8 | 100 |  |  | 
CS(=O)(=O)N[C@H]1CC[C@@]2(CO[C@H]3CC[C@H](CC3)c3cccc(c3)OCc3cnc2o3)C1 [Example 73, N-[(1s,1′S,13S,16s)-spiro[7,15,21-trioxa-11-azatetracyclo[14.2.2.12,6.19,12]docosa-2,4,6(22),9,11-pentaene-13,3′-cyclopentane]-1′-yl]methanesulfonamide] | 0.94 | 98 |  |  | 
CS(=O)(=O)N[C@H]1CC[C@@]2(COCCCc3cccc(c3)OCc3coc2n3)C1 [Example 67, N-[(1S,8S)-spiro[2,6,10-trioxa-19-azatricyclo[12.3.1.14,7]nonadeca-1(18),4,7(19),14,16-pentaene-8,3′-cyclopentane]-1′-yl]methanesulfonamide] | 1200 | 94 |  |  | 
CS(=O)(=O)N[C@H]1CC[C@@]2(Cc3cc(ccn3)-c3ccccc3OCc3coc2n3)C1 [Example 49, N-[(1′S,14S)-spiro[8,12-dioxa-17,21-diazatetracyclo[14.3.1.110,13.02,7]henicosa-1(20),2,4,6,10,13(21),16,18-octaene-14,3′-cyclopentane]-1′-yl]methanesulfonamide] | 2000 | 94 |  |  | 
Cn1cc2c(n1)OCc1coc(n1)[C@]1(CC[C@H](NS(C)(=O)=O)C1)Cc1ccc(F)c-2c1 [Example 81, N-[(1′S,13R)-18-fluoro-4-methyl-spiro[7,11-dioxa-4,5,20-triazatetracyclo[13.3.1.19,12.02,6]icosa-1(18),2,5,9,12(20),15(19),16-heptaene-13,3′-cyclopentane]-1′-yl]methanesulfonamide] | 0.068 | 100 |  |  | 
CS(=O)(=O)N[C@H]1CC[C@@]2(Cc3ccc(C(F)(F)F)c(c3)-c3cccc(F)c3OCc3coc2n3)C1 [Example 23, N-[(1′S,14R)-6-fluoro-19-(trifluoromethyl)spiro[8,12-dioxa-21-azatetracyclo[14.3.1.110,13.02,7]henicosa-1(19),2,4,6,10,13(21),16(20),17-octaene-14,3′-cyclopentane]-1′-yl]methanesulfonamide] | 1.3 | 98 |  |  | 
C[C@@H]1C[C@@H](NS(C)(=O)=O)C[C@@]12Cc1ccc(F)c(c1)-c1ccccc1OCc1coc2n1 [Example 62, N-[(1′R,4′R,14S)-19-fluoro-4′-methyl-spiro[8,12-dioxa-21-azatetracyclo[14.3.1.110,13.02,7]henicosa-1(19),2,4,6,10,13(21),16(20),17-octaene-14,3′-cyclopentane]-1′-yl]methanesulfonamide or N-[(1′S,4′S,14R)-19-fluoro-4′-methyl-spiro[8,12-dioxa-21-azatetracyclo[14.3.1.110,13.02,7]henicosa-1(19),2,4,6,10,13(21),16(20),17-octaene-14,3′-cyclopentane]-1′-yl]methanesulfonamide] | 160 |  |  |  | 100
